Reference: patent US8552058B2, “Application of L-n-butylphthalide in preventing and treating dementia” (CSPC Zhongqi Pharmaceutical Technology (Shijazhuang) Co., …, priority 2004, dated 2013)
“Also recorded” adds a separate entry of the source.

Experiments:
[1] = system: rats with continuous perfusion of Aβ (1-40) into lateral ventricle; assay: Morris' water maze and working memory test after continuous i.c.v. perfusion of Aβ (1-40); assay type: in vivo, Wistar rats; settings: for search strategy after 5 days of training / latency after 5 days of training: Aβ (1-40) i.c.v. rats; for latency after 5 days of training: mean±standard error, model 30.18±4.81, sham 13.02±2.77, p<0.05 vs model
Description: For Morris' Water Maze Automatic Monitor and experimental protocols, reference may be made to the experiments of learning and memory damage of rats induced by brain hypoperfusion.
Male Wistar rats, which were 10-weeks old and weighed approximately 280 grams, were used. One animal was placed in one cage, while the room temperature was kept at 23° C., with food and water freely accessible. Rats were anaesthetized with sodium pentobarbital (40 mg/kg), and were fixed to stereotaxic apparatus with the position of ventral decubitus. Head skin was cut open, a cannula for Aβ (1-40) perfusion was implanted into right ventricle. According to the stereotaxic profile of rat brain by Paxions and Watson, the implantation site was located 0.3 mm behind and 1.1 mm in the right side of anterior fontanelle, with the depth of 4.0 mm. The cannula was connected to a micro-osmotic pump. The pump was placed on the back of the rat. Aβ (1-40) was dissolved in 35% acetonitrile/0.1% trifluroacetic acid, and was continuously perfused intracerebroventricularly (i.c.v.) at 300 pmol/day, while only the solvent (35% acetonitrile/0.1% trifluroacetic acid) was perfused in the control group.
Rats were randomly classified into […] groups, with 10 animals per group. 1) the sham surgery group: only 35% acetonitrile/0.1% trifluroacetic acid+solvent was perfused into the ventricles of the rats; 2) the model group: Aβ (1-40)+solvent; 3) Aβ (1-40)+L-NBP 10 mg/kg group; 4) Aβ (1-40)+L-NBP 30 mg/kg group. Respective drug or solvent was drenched since the 2nd day after the surgery. The water maze experiment was performed on the 9-13 day after the surgery, while the platform exploration experiment was performed on the 13th day, and the working memory test was performed on the 14-16th days. Animals were decapitated to remove brains for biochemical assay on the 17th day. In all ethological tests, medicines were administered 40 minutes prior to the respective test.
The water maze training experiment was performed on the 9-13th day after icv Aβ (1-40), and the platform exploration experiment was performed on the 13 day after that. The working memory test was performed on the 14-16th day after icv Aβ (1-40) (see the figure above), which investigated the ability of rapid learning and spatial memory in animals when the platform and quadrant were changed, based on the fact that animals had memorized in some extent after training and platform exploration experiment. Experimental procedure was similar to the standard water maze training experiment except that the platform's location was changed every day. The experiment was conducted five times every day, allowing the rats to start swimming from five water-entry sites respectively. […] In the following 4 experiments, the location of the platform was kept constant, yet the water entry sites were within different quadrants. The latency of working memory was calculated by averaging those of the 2-5th experiments, and the ability of working memory of each rat was calculated by averaging the experimental values in 3 days.
All results were expressed in mean±standard error. Comparison of latencies between groups in water maze experiment was performed using two-factor analysis of variance in replicate. Comparison between groups was performed using post hoc LSD or Turkey test. Platform exploration test in water maze experiment, working memory test and biochemical assay were analyzed using one-factor analysis of variance. A difference was considered significant when p<0.05.

[2] = system: Superoxide dismutase (SOD); assay: SOD activity in cortex and hippocampus of hypoperfused (2-VO) rats; assay type: in vivo, Wistar rats; settings: 10 mg/kg

## CCCC[C@@H]1OC(=O)c2ccccc21 [L-NBP, L-n-butylphthalide]
[1]; 10 mg/kg oral
  search strategy after 5 days of training: changed from peripheral and random to purposive and linear
  latency after 5 days of training: 27.28 ± 6.42 s
[1]; 30 mg/kg oral
  search strategy after 5 days of training: changed from peripheral and random to purposive and linear
  latency after 5 days of training: 25.88 ± 5.51 s
[1]; 10 and 30 mg/kg, days 14-16 after Aβ (1-40), model 14.05±1.88 s, sham 9.15±0.91 s, p<0.01
  working memory (latency in 2-5th experiments): can significantly improve the working memory ability in a dose-dependent way; also recorded: could improve the working memory of rats in a dose-dependent manner
[1]; continuous perfusion of Aβ (1-40) into lateral ventricle, rats, Morris' water maze
  amelioration of impaired short-term memory and stereotaxic memory (overall conclusion): could significantly ameliorate
[2]; 2-VO rats, p<0.05
  SOD activity in hippocampus after treatment (in words): returned close to the normal level
[2]; hypoperfused rats, n = 7-9, solvent control 81.16 ± 6.84, sham 57.90 ± 7.41, p<0.05 vs solvent control
  SOD activity, hippocampus: 57.60 ± 3.86 NU/mg protein
[2]; hypoperfused rats, n = 7-9, solvent control 114.42 ± 7.82, sham 100.07 ± 3.64
  SOD activity, cortex: 98.84 ± 5.53 NU/mg protein
